Source: patent US20030236218A1, “Aryl phosphate derivatives of d4T with selective activity against adenovirus and HIV” (priority 2002, published 2003)
Several values for one entry are separate records, joined by “and”; a condition that tells them apart may be missing. Identical values can stand only once. Like-named read-outs stand apart in the source and are kept apart here.

Tests used:
[1] = Pharmacokinetic studies in mice, intravenous administration; type: in vivo, Balb/c mice; conditions: for AUC / CL / Cmax / Vss / t1/2 / Tmax: plasma analyte = label
Description: Female Balb/c mice (6-8 weeks old) from Taconic (Germantown, N.Y.) were housed in a controlled environment (12-hours of light/12-hours of dark, 22±1° C., 60±10% relative humidity), which is fully accredited by the USDA. All rodents were housed in microisolator cages (Lab Products, Inc., NJ) containing autoclaved bedding. The mice were allowed free access to autoclaved pellet food and tap water throughout the study.
Blood samples (˜500 μL) were obtained from the ocular venous plexus by retro-orbital venipuncture at 0, 2, 5, 10, 15, 30, 45, 60, 120, 240 and 360 minutes after intravenous injection.
(§8) All collected blood samples were heparinized and centrifuged at 7000×g for 5 minutes to separate the plasma fraction from the whole blood. The plasma samples were then processed immediately using the extraction procedure described above.
(§9) Pharmacokinetic modeling and parameter calculations were carried out using the WinNonlin Professional Version 3.0 (Pharsight, Inc., Mountain, Calif.) pharmacokinetics software (Chen et al., Pharm. Res., 16, 1003 (1999); Chen et al., Pharm. Res., 16, 117 (1999); Chen et al., J. Clin. Pharmacol., 39, 1248 (1999); Uckun et al., Clin. Cancer Res., 5, 2954 (1999); and Uckun et al., J. Pharmacol. Exp. Ther., 291, 1301 (1999)). An appropriate model was chosen on the basis of the lowest sum of weighted squared residuals, the lowest Schwartz Criterion (SC), the lowest Akaike's Information Criterion (AIC) value, the lowest standard errors of the fitted parameters, and the dispersion of the residuals. The elimination half-life was estimated by linear regression analysis of the terminal phase of the plasma concentration-time profile. The area under the concentration-time curve (AUC) was calculated according to the linear trapezoidal rule between the first sampling time (0 hours) and the last sampling time plus C/k, where C is the concentration of the last sampling and k is the elimination rate constant. The systemic clearance (CL) was determined by dividing the dose by the AUC. The metabolic clearance of the parent drug, the formation clearance of the metabolite, the clearance elimination of the metabolite, and the distribution clearance of the metabolite were estimated by simultaneous fitting of the concentration of parent drug and metabolites as a function of time curve to pharmacokinetic models (see FIGS. 7A & 8A) specified as a system of differential equations (Gabrielsson & Weiner, Phamacokinetic/Phamacodynamic Data Analysis: Concepts and Applications, Swedish Pharmaceutical Press (1997)).

[2] = Stability in simulated intestinal fluid; type: in vitro ADME; conditions: 100 μM, 37° C.
Description: The spiked fluids were then placed in a 37° C. water bath. At a predetermined time, 100 μI aliquots of the spiked gastric or intestinal fluid were extracted by adding 400 μl of acetone as discussed above.

Stability in whole blood = type: in vitro ADME; conditions: spiked whole blood 37° C.; 250 μM compound 113, 100 μM Ala-d4T-MP (followed for 1 day)
Description: (§1) The whole blood samples were placed in a 37° C. water bath, while plasma samples were stored at −20° C. At a predetermined time, an aliquot (100 μl) of spiked whole blood or plasma was extracted by adding 400 μl of acetone to induce precipitation of proteins, as described above.

[3] = Pharmacokinetic studies in mice, oral administration; type: in vivo, Balb/c mice; conditions: for AUC / Cmax / Tmax / t1/2: plasma analyte = label, after oral 100 mg/kg compound 113
Description: Female Balb/c mice (6-8 weeks old) from Taconic (Germantown, N.Y.) were housed in a controlled environment (12-hours of light/12-hours of dark, 22±1° C., 60±10% relative humidity), which is fully accredited by the USDA. All rodents were housed in microisolator cages (Lab Products, Inc., NJ) containing autoclaved bedding. The mice were allowed free access to autoclaved pellet food and tap water throughout the study. All animal care procedures conformed to the Guide for the Care and Use of Laboratory Animals (National Research Council, National Academy Press, Washington D.C. 1996).
Sampling time points were 0, 2, 5, 10, 15, 30, 45, 60, 120, 240 and 360 minutes after the gavage.
as §8, §9

Stability in plasma = type: in vitro ADME; conditions: spiked plasma; 250 μM compound 113, 100 μM Ala-d4T-MP (followed for 1 day)
Description: Plasma samples (200 μL) were mixed 1:4 with acetone (800 μL) and vortexed for at least 30 seconds. Following centrifugation, the supernatant was transferred into a clean tube and was dried under nitrogen. A 50 μL solution of 50% methanol in 200 mM HCl was used to reconstitute the extraction residue, and 40 μL was injected into the HPLC.
as §1

Solubility = type: physicochemical; conditions: read-out: Solubility
[4] = test system: respiratory syncytial virus (RSV), strain Long; test: RSV plaque formation assay in HEP-2 cells; type: cell-based; conditions: human respiratory syncytial virus, HEp-2
Text: (§2) Virus stocks. The HIV-1 strain used in this study was HTLV-IIIB (Uckun et al., 1998 Antimicro. Agents and Chemother., 42:383-388). The non-HIV viruses included in the present study were the gancyclovir-sensitive cytomegalovirus (CMV) strain AD169 (ATCC VR-538); acyclovir-sensitive herpes simplex virus (HSV) Type I strain HF (ATCC VR-260); acyclovir-sensitive HSV Type II strain G (ATCC VR-734); adenovirus strain Type 5, strain adenoid 75 (ATCC VR-5); enterovirus strain, ECHO 30, strain Bastianni (ATCC VR-322); and respiratory syncytial virus (RSV), strain Long (ATCC VR-26).
(§3) Plaque formation assays. Plaque assays were used to examine the activity of the compounds against non-HIV viruses. The skin fibroblast cell line SF (ATCC CRL-2097) was used as a target for AD169, Adenovirus Type 5. […] cell line (ATCC CCL-81) was used as a target for HSV HF and G. The HEP-2 cell line (ATCC CCL-23) was used as a target for the RSV strain Long. These cell lines were cultured at 1×10^5 cells/well in 24-well (all but ECHO 30-infected SF) or 6-well (ECHO 30-infected SF) tissue culture plates with 0.9% methylcellulose or 0.4% SeaPlaque agarose semisolid support. […] Percent inhibition of plaque formation was calculated by comparing the plaque numbers from the test substance-treated infected cells with the plaque numbers from untreated infected cells (i.e., virus controls). The IC50 values were determined using the Statview statistics program (SAS Institute, Inc., Cary, N.C.).
(§4) Statistical analysis. […] An IC50 value was calculated from each set of triplicate wells using nonlinear regression modeling of the exponential form of the linearized equation (Statview, SAS Institute, Inc., Cary, N.C.). […]
(§5) The skin fibroblast cell line SF (ATCC CRL-2097) was used as a target for AD169, Adenovirus Type 5, and ECHO 30; the VERO cell line (ATCC CCL-81) was used as a target for HF and G; and the HEP-2 cell line (ATCC CCL-23) was used as target for the RSV strain Long. Results are expressed as the average IC50 values in μM. […]

[5] = Octanol/water partition coefficient, shake flask method; type: physicochemical; conditions: 4 hours at room temperature, read-out: Oct/Water (log P)
Description: HPLC purification was achieved using a reverse-phase Lichrospher column (250×4 mm, Hewlett-Packard, RP-18, Cat. #79925) and an isocratic flow (1 ml/minute) consisting of water (70%) and acetonitrile (30%). Melting points were determined using a Melt John's apparatus and are uncorrected. Column chromatography was performed using silica gel obtained from Baker Company. The octanol/water partition coefficient was determined by the shake flask method. The phosphoramidate analogs were added to 2 ml of water and 2 ml of octanol in a glass vial. The mixture was shaken for 4 hours at room temperature. The two phases were carefully separated and filtered through a Millipore filter and analyzed by HPLC. The partition coefficient was calculated using the ratio of the area under the curve for octanol and water, respectively.

[6] = Hydrolysis rate in alkali conditions; type: physicochemical
Description: (§6) Statistical analysis. Each drug was tested at 6-7 different concentrations ranging from 0.0001 μM to 100 μM. Each assay was set up in triplicate wells and repeated 1-3 times. An IC50 value was calculated from each set of triplicate wells using nonlinear regression modeling of the exponential form of the linearized equation (Statview, SAS Institute, Inc., Cary, N.C.). Hydrolysis rates were determined by fitting single exponential decay equations to the disappearance of the compound in alkali conditions (all R^2 values greater than 0.85). The IC50 values obtained were correlated to the log transformed hydrolysis rate constants by fitting a linear model (JMP Software, SAS Institute Inc., Cary, N.C.). P-values less than 0.05 were deemed significant.

[7] = test system: herpes simplex virus (HSV) Type I strain HF; test: HSV-1 plaque formation assay in VERO cells; type: cell-based; conditions: Human alphaherpesvirus 1, HSV-1, Strain HF
Text: as §2, §3, §4, §5

[8] = test system: enterovirus strain, ECHO 30, strain Bastianni; test: Enterovirus plaque formation assay in SF cells; type: cell-based
Text: as §2, §3, §4, §5

[9] = test system: adenovirus strain Type 5, strain adenoid 75; test: Adenovirus plaque formation assay in skin fibroblast cell line SF; type: cell-based, human adenovirus
Text: as §2
(§7) Plaque formation assays. Plaque assays were used to examine the activity of the compounds against non-HIV viruses. The skin fibroblast cell line SF (ATCC CRL-2097) was used as a target for AD169, Adenovirus Type 5. […] cell line (ATCC CCL-81) was used as a target for HSV HF and G. The HEP-2 cell line (ATCC CCL-23) was used as a target for the RSV strain Long. These cell lines were cultured at 1×10^5 cells/well in 24-well (all but ECHO 30-infected SF) or 6-well (ECHO 30-infected SF) tissue culture plates with 0.9% methylcellulose or 0.4% SeaPlaque agarose semisolid support. Minimum Essential Medium (MEM) with Earle's salts (Gibco), L-glutamine, non-essential amino acids, 2% heat-inactivated fetal bovine serum, 1% penicillin/streptomycin, and 0.05% gentamicin served as the culture medium. The incubation times were 3 days for HF, G, ECHO 30, and Long; and 7 days for AD169 and Adenovirus Type 5. Plaque counting was performed with a 20X dissecting microscope for AD169, Type 5, ECHO 30, and RSV Long, and with a light box for HF and G. The fixative agent was crystal violet for all viruses, except for the CMV strain AD169 for which methylene blue was used. Percent inhibition of plaque formation was calculated by comparing the plaque numbers from the test substance-treated infected cells with the plaque numbers from untreated infected cells (i.e., virus controls). The IC50 values were determined using the Statview statistics program (SAS Institute, Inc., Cary, N.C.).
as §6, with “Hydrolysis rates were determined by fitting single exponential decay equations to the disappearance of the compound in alkali conditions (all R^2 values greater than 0.85).” left out
The skin fibroblast cell line SF (ATCC CRL-2097) was used as a target for AD169, Adenovirus Type 5, and ECHO 30; the VERO cell line (ATCC CCL-81) was used as a target for HF and G; and the HEP-2 cell line (ATCC CCL-23) was used as target for the RSV strain Long. Results are expressed as the average IC50 values in μM. Stavudine (STV) was included as a control.

skin fibroblasts = test: Cytotoxicity in skin fibroblasts (plaque assay); type: cell-based; conditions: ADV plaque formation assay
Description: as §7, with “Plaque counting was performed with a 20X dissecting microscope for AD169, Type 5, ECHO 30, and RSV Long, and with a light box for HF and G. The fixative agent was crystal violet for all viruses, except for the CMV strain AD169 for which methylene blue was used.” left out

HIV-1 strain HTLV-IIIB = test: In vitro anti-HIV-1 activity, p24 antigen assay in PBMNC; type: cell-based; conditions: Human immunodeficiency virus 1, HIV-1, HTLV-IIIB, day 7
Text: as §2
In vitro assays of anti-HIV-1 activity. Normal human peripheral blood mononuclear cells (PBMNC) from HIV-negative donors were cultured 72 hours in RPMI 1640 supplemented with 20% (v/v) heat-inactivated fetal bovine serum (FBS), 3% interleukin-2, 2 mM L-glutamine, 25 mM HEPES, 2 g/L NaHCO3, 50 Tg/mL gentamicin, and 4 Tg/mL phytohemagglutinin prior to exposure to HIV-1 at a multiplicity of infection (MOI) of 0.1 during a 1 hour adsorption period at 37° C. in a humidified 5% CO2 atmosphere. Subsequently, cells were cultured in 96-well microtiter plates (100 TL, 2×10^6 cells/mL) in the presence of various concentrations of compounds 113 or 609. Aliquots of culture supernatants were removed from the wells on the seventh day after infection for p24 antigen assays, as previously described. […] Percent viral inhibition was calculated by comparing the p24 values from untreated infected cells (i.e., virus controls).
Statistical analysis. […] An IC50 value was calculated from each set of triplicate wells using nonlinear regression modeling of the exponential form of the linearized equation (Statview, SAS Institute, Inc., Cary, N.C.). Hydrolysis rates were determined by fitting single exponential decay equations to the disappearance of the compound in alkali conditions (all R^2 values greater than 0.85). […]

[10] = test system: cytomegalovirus (CMV) strain AD169; test: CMV plaque formation assay in SF cells; type: cell-based; conditions: Human betaherpesvirus 5
Text: as §2, §3, §4, §5

HSV Type II strain G = test: HSV-2 plaque formation assay in VERO cells; type: cell-based, herpes simplex virus Type II; conditions: Human alphaherpesvirus 2, HSV-2, Strain G
Text: as §2, §3, §4, §5

[11] = after i.v. Ala-d4T-MP, model fit, C.V. of modeling in parentheses
[12] = after i.v. compound 113, model fit, C.V. of modeling in parentheses
[13] = after i.v. 75 mg/kg Ala-d4T-MP, estimate from composite curve of pooled data
[14] = after i.v. 75 mg/kg Ala-d4T-MP, mean ± S.E.M
[15] = after i.v. 100 mg/kg compound 113, estimate from composite curve of pooled data
[16] = after i.v. 100 mg/kg compound 113, mean ± S.E.M
[17] = estimate from composite curve of pooled data

## Cc1cn([C@H]2C=C[C@@H](COP(=O)(O)NC(C)C(=O)O)O2)c(=O)[nH]c1=O (stereo partly drawn) [Ala-d4T-MP, alaninyl-d4T-monophosphate]
[1]; after i.v. Ala-d4T-MP
  share of CLm1 in the total systemic clearance: 99%
[1]; [11]
  CLm1 (metabolic clearance of Ala-d4T-MP / formation clearance of d4T): 15.6 ml/min/kg and 15.6 (16.6%) ml/min/kg
  CLpd (distribution of Ala-d4T-MP to extravascular compartment): 4.7 ml/min/kg and 4.7 (44.7%) ml/min/kg
[1]; [12]
  CLm3 (metabolic clearance of Ala-d4T-MP / formation clearance of d4T): 36.1 mL/min/kg
  CLm1d (distribution of Ala-d4T-MP to the extravascular compartment): 47.1 ml/min/kg and 62.0 (69.8%) ml/min/kg
[1]; metabolite = label, after i.v. compound 113
  fraction of parent converted to the metabolite (fm): 23%
[1]; [13]
  AUC: 11648.7 µM·min
  CL: 15.8 mL/min/kg
  Cmax: 1210 µM
  Vss: 0.2755 L/kg
  t1/2: 28.5 min
[1]; [14]
  AUC: (11761.5 ± 447.2) μM · min
  CL: (15.7 ± 0.6) ml/min/kg
  Cmax: 1660 µM
  Vss: (412.6 ± 126.3) ml/kg
  t1/2: (91.5 ± 54.5) min
[1]; [15]
  AUC: 2854.8 µM·min
  Cmax: 67.4 µM
  Tmax: 5.9 min
  t1/2: 129.2 min
[1]; [16]
  AUC: (2795.9 ± 361.2) μM · min
  Cmax: 69.3 µM
  Tmax: (5.1 ± 0.7) min
  t1/2: (138.8 ± 40.2) min
[2]
  stability in intestinal fluid (in words): stable
Stability in whole blood
  stability in whole blood (in words): stable
[3]; metabolite = label, after oral administration of compound 113
  estimated bioavailability: approximately 12%
[3]; [17]
  AUC: 1350.5 µM·min
  Cmax: 12.7 µM
  Tmax: 10.3 min
  t1/2: 66.4 min
[3]; mean ± S.E.M
  AUC: (1355.4 ± 88.2) μM · min
  Cmax: 15.6 µM
  Tmax: (9.3 ± 0.9) min
  t1/2: (56.1 ± 8.5) min
Stability in plasma
  stability in plasma (in words): stable

## COC(=O)C(C)NP(=O)(OCC1C=CC(n2cc(C)c(=O)[nH]c2=O)O1)Oc1ccc(Cl)cc1 (stereo not drawn) [Compound 609, 5′-[4-Chlorophenylmethoxyalaninyl phosphate]-2′, 3′-didehydro-3′-deoxy thymidine]
Solubility
  Solubility: 1400 µg/mL
[4]
  IC50: > 100000 nM
[5]
  logP at 4 h: 0.64
[6]
  Hydrolysis Rate: 0.0216 min⁻¹
[7]
  IC50: > 100000 nM
[8]
  IC50: > 100000 nM
[9]; Adenovirus Type 5, 7 days, ± s.e., read-out: IC50, ADV-induced plaque formation
  IC50: 26.7 nM and 27 nM
[9]; read-out: IC50, ADV-induced plaque formation, Adenovirus Type 5, 7 days, ± s.e.
  IC50: 2.7 ± 3 nM
Skin fibroblasts
  cytotoxicity (in words): without cytotoxicity
HIV-1 strain HTLV-IIIB
  IC50: 1 nM
[10]
  IC50: > 100000 nM
HSV Type II strain G
  IC50: > 100000 nM
